# Target: AKT-3 (Homo sapiens, UniProt Q9Y243)
# Assay: AKT-3 inhibition assay (standard coupled enzyme assay)
# Type: biochemical
# Conditions: 170 μM ATP, 200 μM peptide, 45 nM AKT, 30° C.
# AKT-3, sequence (Q9Y243 whole entry): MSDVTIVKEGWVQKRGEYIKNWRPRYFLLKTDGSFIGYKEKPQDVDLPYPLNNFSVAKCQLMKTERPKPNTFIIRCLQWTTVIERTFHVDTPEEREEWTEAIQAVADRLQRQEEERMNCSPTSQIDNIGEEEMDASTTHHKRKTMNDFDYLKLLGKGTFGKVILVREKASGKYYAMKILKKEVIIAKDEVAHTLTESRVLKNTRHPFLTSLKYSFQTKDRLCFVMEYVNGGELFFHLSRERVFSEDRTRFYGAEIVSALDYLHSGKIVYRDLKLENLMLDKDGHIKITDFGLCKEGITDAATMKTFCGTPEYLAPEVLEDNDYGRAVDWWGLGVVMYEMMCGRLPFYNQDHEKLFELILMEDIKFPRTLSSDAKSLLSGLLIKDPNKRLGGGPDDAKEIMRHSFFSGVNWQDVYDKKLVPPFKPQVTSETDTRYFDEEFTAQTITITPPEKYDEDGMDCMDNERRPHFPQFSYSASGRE
row,Compound,Ki [µM]
1,N[C@@H](Cc1ccc(Cl)c(Cl)c1)C(=O)Nc1ccc2[nH]ncc2c1 [Compound I-95],10 to 20
2,NC(C(=O)Nc1ccc2[nH]ncc2c1)c1cccc(C(F)(F)F)c1 (stereo not shown) [Compound I-53],1 to 10
3,NC(C(=O)Nc1ccc2[nH]ncc2c1)c1ccc2ccccc2c1 (stereo not shown) [Compound I-58],1 to 10
4,O=C(Cc1ccc(Cl)c(Cl)c1)Nc1ccc2[nH]ncc2c1 [Compound I-16],1 to 10
5,Nc1n[nH]c2ccc(NC(=O)Cc3cccc(Cl)c3)cc12 [Compound I-82],10 to 20
6,CCCNCCCNC(C(=O)Nc1ccc2[nH]ncc2c1)c1cccc(Cl)c1 (stereo not shown) [Compound I-68],1 to 10
7,CCNCCNC(C(=O)Nc1ccc2[nH]ncc2c1)c1cccc(Cl)c1 (stereo not shown) [Compound I-63],1 to 10
8,O=C(Nc1ccc2[nH]ncc2c1)C(NCCc1ccccn1)c1cccc(Cl)c1 (stereo not shown) [Compound I-66],10 to 20
9,NCCNC(C(=O)Nc1ccc2[nH]ncc2c1)c1ccc(Cl)cc1 (stereo not shown) [Compound I-70],< 1
10,N[C@H](C(=O)Nc1ccc2[nH]ncc2c1)c1ccccc1 [Compound I-49],1 to 10
11,O=C(Nc1ccc2[nH]ncc2c1)C(O)c1ccc(Br)cc1 (stereo not shown) [Compound I-37],10 to 20
12,COC(=O)NCCC(C(=O)Nc1ccc2[nH]ncc2c1)c1ccc(Cl)c(Cl)c1 (stereo not shown) [Compound I-151],1 to 10
13,NCCC(C(=O)Nc1ccc2[nH]nc(NC(=O)c3cccc(CN4CCOCC4)c3)c2c1)c1ccc(Cl)c(Cl)c1 (stereo not shown) [Compound I-215],< 1
14,NC(C(=O)Nc1ccc2[nH]ncc2c1)c1ccc(Cl)cc1 (stereo not shown) [Compound I-50],1 to 10
15,NCCC(C(=O)Nc1ccc2[nH]nc(NC(=O)c3cccc(Cn4ccnc4)c3)c2c1)c1ccc(Cl)c(Cl)c1 (stereo not shown) [Compound I-217],< 1
16,NCCNC(C(=O)Nc1ccc2[nH]ncc2c1)c1ccc(Oc2ccccc2)c(Cl)c1 (stereo not shown) [Compound I-72],1 to 10
17,Nc1n[nH]c2ccc(NC(=O)Cc3ccc(Cl)c(Cl)c3)cc12 [Compound I-83],1 to 10
18,CNC(=O)NCCC(C(=O)Nc1ccc2[nH]ncc2c1)c1ccc(Cl)c(Cl)c1 (stereo not shown) [Compound I-152],1 to 10
19,CN(C)CCNC(C(=O)Nc1ccc2[nH]ncc2c1)c1cccc(Cl)c1 (stereo not shown) [Compound I-62],< 1
20,NCCCNC(C(=O)Nc1ccc2[nH]ncc2c1)c1cccc(Cl)c1 (stereo not shown) [Compound I-60],< 1
21,NCCC(C(=O)Nc1ccc2[nH]nc(NC(=O)c3cccc(CN4CCCCC4)c3)c2c1)c1ccc(Cl)c(Cl)c1 (stereo not shown) [Compound I-214],< 1
22,COc1ccc(Br)cc1CC(=O)Nc1ccc2[nH]ncc2c1 [Compound I-94],10 to 20
23,NCCC(C(=O)Nc1ccc2[nH]nc(NC(=O)c3cccc(CN4CCNCC4)c3)c2c1)c1ccc(Cl)c(Cl)c1 (stereo not shown) [Compound I-218],< 1
24,NCC(C(=O)Nc1ccc2[nH]ncc2c1)c1cccc(Cl)c1 (stereo not shown) [Compound I-157],1 to 10
25,"NCC(=O)NC(C(=O)Nc1ccc2[nH]ncc2c1)c1cccc(Cl)c1 (stereo not shown) [Compound I-74, 2-(2-Amino-acetylamino)-2-(3-chloro-phenyl)-N-(1H-indazol-5-yl)-acetamide]",< 1
26,O=C(Nc1ccc2[nH]ncc2c1)C(NCCNCc1ccccc1)c1cccc(Cl)c1 (stereo not shown) [Compound I-64],< 1
27,CNCCNC(C(=O)Nc1ccc2[nH]ncc2c1)c1cccc(Cl)c1 (stereo not shown) [Compound I-61],< 1
28,O=C(Cc1ccc(Cl)cc1)Nc1ccc2[nH]ncc2c1 [Compound I-5],1 to 10
29,NCC(C(=O)Nc1cc(-c2ccccc2)c2[nH]ncc2c1)c1ccc(Cl)c(Cl)c1 (stereo not shown) [Compound I-146],10 to 20
30,O=C(Nc1ccc2[nH]ncc2c1)C(NCc1ccccn1)c1cccc(Cl)c1 (stereo not shown) [Compound I-65],10 to 20

# Results, then the compound that gave them:
row,Ki [µM],Compound
1,< 1,NCCC(C(=O)Nc1ccc2[nH]nc(-c3cccc(OC(F)(F)F)c3)c2c1)c1ccc(Cl)c(Cl)c1 (stereo not shown) [Compound I-256]
2,1 to 10,Cc1cccn(C(CCN)C(=O)Nc2ccc3[nH]nc(C)c3c2)c1=O (stereo not shown) [Compound I-137]
3,< 1,NCCC(C(=O)Nc1ccc2[nH]nc(-c3cccc(-c4ccccc4)c3)c2c1)c1ccc(Cl)c(Cl)c1 (stereo not shown) [Compound I-223]
4,10 to 20,NCC[C@H](C(=O)Nc1ccc2[nH]nc(-c3ccccc3)c2c1)c1c(F)ccc(Cl)c1F [Compound I-1057]
5,1 to 10,Cc1n[nH]c2ccc(NC(=O)C(CCN)c3cccc(CC(C)C)c3)cc12 (stereo not shown) [Compound I-142]
6,10 to 20,CCc1n[nH]c2ccc(NC(=O)[C@H](O)c3cccc(Cl)c3)cc12 [Compound I-79]
7,< 1,CC(=O)c1cccc(C(=O)Nc2n[nH]c3ccc(NC(=O)C(CCN)c4ccc(Cl)c(Cl)c4)cc23)c1 (stereo not shown) [Compound I-220]
8,< 1,NCCC(C(=O)Nc1ccc2[nH]ncc2c1)c1cccc(O)c1 (stereo not shown) [Compound I-115]
9,< 1,CS(=O)(=O)c1cccc(C(=O)Nc2n[nH]c3ccc(NC(=O)C(CCN)c4ccc(Cl)c(Cl)c4)cc23)c1 (stereo not shown) [Compound I-221]
10,< 1,NCCC(C(=O)Nc1ccc2[nH]nc(-c3cccc(C(F)(F)F)c3)c2c1)c1ccc(Cl)c(Cl)c1 (stereo not shown) [Compound I-224]
11,1 to 10,COc1ccc(C(NCCN)C(=O)Nc2ccc3[nH]ncc3c2)cc1Cl (stereo not shown) [Compound I-71]
12,< 1,NCCC(C(=O)Nc1ccc2[nH]nc(NC(=O)c3cccc(SC(F)F)c3)c2c1)c1ccc(Cl)c(Cl)c1 (stereo not shown) [Compound I-219]
13,1 to 10,NCCC(C(=O)Nc1ccc2[nH]nc(NC(=O)Cc3ccccc3)c2c1)c1ccc(Cl)c(Cl)c1 (stereo not shown) [Compound I-192]
14,< 1,CCN(CC)Cc1cccc(C(=O)Nc2n[nH]c3ccc(NC(=O)C(CCN)c4ccc(Cl)c(Cl)c4)cc23)c1 (stereo not shown) [Compound I-216]
15,1 to 10,CC(=O)c1n[nH]c2ccc(NC(=O)C(CN)c3ccc(Cl)c(Cl)c3)cc12 (stereo not shown) [Compound I-255]

# Target: T1, PDK-1 (Homo sapiens, UniProt O15530)
# T1 sequence (O15530 1-556): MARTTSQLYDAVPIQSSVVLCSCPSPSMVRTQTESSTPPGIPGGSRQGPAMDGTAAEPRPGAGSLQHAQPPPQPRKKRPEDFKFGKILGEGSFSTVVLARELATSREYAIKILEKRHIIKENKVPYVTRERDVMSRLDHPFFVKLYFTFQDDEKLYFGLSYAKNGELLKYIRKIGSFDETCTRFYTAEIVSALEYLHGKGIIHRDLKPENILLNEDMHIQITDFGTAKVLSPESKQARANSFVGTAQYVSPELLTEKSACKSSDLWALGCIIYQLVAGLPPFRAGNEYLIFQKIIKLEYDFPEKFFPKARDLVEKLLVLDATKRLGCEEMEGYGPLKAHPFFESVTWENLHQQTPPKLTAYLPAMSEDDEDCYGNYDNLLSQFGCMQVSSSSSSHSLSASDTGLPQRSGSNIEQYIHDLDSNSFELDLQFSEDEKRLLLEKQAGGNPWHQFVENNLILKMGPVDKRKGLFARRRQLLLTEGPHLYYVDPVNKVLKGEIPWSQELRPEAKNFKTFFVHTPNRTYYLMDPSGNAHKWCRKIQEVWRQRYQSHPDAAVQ
# Assay: PDK-1 inhibition assay (radioactive-phosphate incorporation)
# Type: biochemical
# Conditions: 40 μM ATP, 65 μM PDKtide, 25 nM PDK-1, 30° C.
row,Compound,Ki [µM]
1,O=C(Cc1ccc(Cl)c(Cl)c1)Nc1ccc2[nH]ncc2c1 [Compound I-16],> 3
2,CC(=O)O[C@@H](C(=O)Nc1ccc2[nH]ncc2c1)c1ccccc1 [Compound I-33],> 3
3,CC(=O)OC(C(=O)Nc1ccc2[nH]ncc2c1)c1ccccc1 (stereo not shown) [Compound I-1020],> 3
4,O=C(Nc1ccc2[nH]ncc2c1)C(CCNCc1ccccc1)c1ccccc1F (stereo not shown) [Compound I-1025],> 3
5,NCCC(C(=O)Nc1cc(-c2ccccc2Cl)c2[nH]ncc2c1)c1ccc(Cl)c(Cl)c1 (stereo not shown) [Compound I-148],> 3
6,O=C(CCC(C(=O)N1CCN(Cc2ccccc2)CC1)c1ccccc1)Nc1ccc2[nH]ncc2c1 (stereo not shown) [Compound I-1015],> 3

# The remaining lines, values ahead:
row,Ki [µM],Compound
1,> 3,NCCC(C(=O)Nc1ccc2[nH]nc(CNC(=O)c3ccccc3)c2c1)c1ccccc1 (stereo not shown) [Compound I-1042]
2,1 to 3,Cc1cccn(C(CCN)C(=O)Nc2ccc3[nH]nc(C)c3c2)c1=O (stereo not shown) [Compound I-137]
3,< 1,NCCC(C(=O)Nc1ccc2[nH]ncc2c1)c1ccccc1F (stereo not shown) [Compound I-1032]
4,< 1,NCCC(C(=O)Nc1ccc2[nH]nc(NC(=O)c3cccs3)c2c1)c1cccnc1 (stereo not shown) [Compound I-272]
5,< 1,NCC[C@H](C(=O)Nc1ccc2[nH]nc(-c3ccccc3)c2c1)c1c(F)ccc(Cl)c1F [Compound I-1057]
6,< 1,NCCC(C(=O)Nc1ccc2[nH]nc(-c3ccc(Oc4ccccc4)cc3)c2c1)c1ccccc1 (stereo not shown) [Compound I-265]
7,< 1,Cc1cccc(-c2n[nH]c3ccc(NC(=O)C(CCN)c4ccccc4)cc23)c1 (stereo not shown) [Compound I-238]
8,> 3,Cc1n[nH]c2ccc(NC(=O)C(CCN)c3cccc(CC(C)C)c3)cc12 (stereo not shown) [Compound I-142]
9,< 1,NCCC(C(=O)Nc1ccc2[nH]nc(-c3ccc(F)cc3)c2c1)c1ccccc1 (stereo not shown) [Compound I-1027]
10,< 1,NCCC(C(=O)Nc1ccc2[nH]nc(-c3cccc(C(N)=O)c3)c2c1)c1ccccc1 (stereo not shown) [Compound I-248]
11,< 1,Cc1n[nH]c2ccc(NC(=O)C(CCN)c3ccsc3)cc12 (stereo not shown) [Compound I-1035]
12,> 3,COc1cccc(C(CCNCc2ccccc2)C(=O)Nc2ccc3[nH]nc(C)c3c2)c1 (stereo not shown) [Compound I-1016]
13,> 3,Cc1n[nH]c2ccc(NC(=O)CCC(NCc3ccccc3)c3ccccc3F)cc12 (stereo not shown) [Compound I-1024]
14,< 1,NCCC(C(=O)Nc1ccc2[nH]nc(-c3ccc(CCC(=O)O)cc3)c2c1)c1ccccc1 (stereo not shown) [Compound I-264]
15,> 3,COc1cccc(C(CCN)C(=O)Nc2ccc3[nH]nc(Nc4cccc(C#N)c4)c3c2)c1 (stereo not shown) [Compound I-1031]
16,< 1,NCCC(C(=O)Nc1ccc2[nH]nc(-c3ccc(C(N)=O)cc3)c2c1)c1ccccc1 (stereo not shown) [Compound I-262]
17,> 3,Cc1n[nH]c2ccc(NC(=O)C(CCN)c3ccco3)cc12 (stereo not shown) [Compound I-1037]
18,> 3,CC(C)c1cccc(-c2n[nH]c3ccc(NC(=O)C(CCN)c4ccccc4)cc23)c1 (stereo not shown) [Compound I-229]
19,> 3,CNc1n[nH]c2ccc(NC(=O)C(CCN)c3ccccc3OC)cc12 (stereo not shown) [Compound I-1019]
20,> 3,COc1cccc(C(CCN)C(=O)Nc2ccc3[nH]nc(Nc4cccc(Cl)c4)c3c2)c1 (stereo not shown) [Compound I-1029]
21,1 to 3,NCCC(C(=O)Nc1ccc2[nH]nc(-c3cccc(OC(F)(F)F)c3)c2c1)c1ccccc1 (stereo not shown) [Compound I-239]
22,1 to 3,NCCC(C(=O)Nc1ccc2[nH]nc(C(=O)NCc3ccccc3)c2c1)c1ccccc1 (stereo not shown) [Compound I-1036]
23,1 to 3,NCCC(C(=O)Nc1ccc2[nH]nc(-c3cccc(-c4ccccc4)c3)c2c1)c1ccccc1 (stereo not shown) [Compound I-228]
24,> 3,COc1cccc(C(CCN)C(=O)Nc2ccc3[nH]nc(Nc4cccc(C(N)=O)c4)c3c2)c1 (stereo not shown) [Compound I-1030]
25,1 to 3,NCCC(C(=O)Nc1ccc2[nH]ncc2c1)c1cccc(O)c1 (stereo not shown) [Compound I-1007]

# From patent publication US7041687B2, “Indazole compounds useful as protein kinase inhibitors” (Vertex Pharmaceuticals Incorporated, priority 2002, dated 2006)
